Assays:
Assay type in all cases: cell-based
[1] = system: Primary human fibroblasts derived from IPF patients (LL29 cells); test: Inhibition of the fibrotic process: αSMA staining in TGF-β1-treated LL29 fibroblasts; conditions: Fibroblast; for EC50: 96 h, LL29 cells, TGF-β1 20 ng/mL, 4 days, % αSMA-positive cells
Procedure, shortened: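 LL29 IPF-patient lung fibroblasts plated in F12 with 1% FBS, treated with TGF-β1 plus compound; TGF-β1/DMSO wells served as controls. After 4 days incubation, SYTOX green (1 μM final) added for 30 min at room temperature; αSMA staining used as fibrosis read-out.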

[2] = system: Wnt activity (Sp5-Luc reporter, SW480 colon carcinoma cells); test: Screening assay for Wnt activity: Sp5-Luc reporter gene assay in SW480 cells; conditions: Homo sapiens; for EC50: SW480 Sp5-Luc reporter, overnight incubation
Procedure, shortened: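 SW480 colon carcinoma cells stably carrying Sp5 promoter (eight TCF/LEF sites)-driven firefly luciferase, plated at 4,000 cells/well in 1% FBS medium and incubated overnight at 37° C. Luminescence normalised to DMSO-only cells; EC50 from four-parameter variable-slope nonlinear regression.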

SW480 colon cancer cells = test: Cell viability assay (CellTiter-Blue) in SW480 colon cancer cells; conditions: Homo sapiens; for EC50: 96 h, SW480 cell viability, four days incubation
Procedure, shortened: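 Fluorescence from resazurin reduced to resorufin by metabolically active cells was the read-out, taken after ~3 h with CellTiter-Blue.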

IL-6 (THP-1 cells) = test: IL-6 inhibition in THP-1 monocytes (HTRF); conditions: Homo sapiens; IL-6 inhibition, THP-1 cells, HTRF, 10-point dose-response starting from 10 μM
Procedure, shortened: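 THP-1 cells serum-reduced (1% FBS, 24 h), plated 5000/well, stimulated with 500 ng/mL […] after 2 h and incubated a further 22 h at 37 °C. Secreted IL-6 quantified by HTRF (665/620 nm ratio), normalized to DMSO; EC50 from four-parameter fit, duplicates.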

[3] = system: primary human mesenchymal stem cells (hMSCs); test: Induction of chondrogenesis in hMSCs (nodule imaging, Rhodamine B / Nile Red); conditions: 6 days; for Emax: relative to TGF-β3 (10 ng/mL) positive control, read-out: Max. Activity as % TGF-β3 activity; for EC50: concentration required to induce 50% levels of chondrogenesis vs TGF-β3, read-out: Conc (nM) of 50% TGF-β3 activity
Procedure, shortened: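 Primary hMSCs at passage 3-6 were treated with compound; nodule area per well was normalized to the mean of 3 DMSO wells, averaged over 2-3 replicates, and the concentration giving 50% chondrogenesis relative to TGF-β3 control, plus maximum activity and its dose, was derived.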

[4] = SW480, read-out: percent inhibition at 10 μM

EC50 [2] [nM]	EC50 (SW480 colon cancer cells) [nM]	EC50 (IL-6 (THP-1 cells)) [nM]	EC50 [3] [nM]	SMILES	EC50 [1] [nM]	Emax [3] [%]	inhibition at 10 µM ([1]; read-out: percent inhibition at 10 μM) [%]	inhibition at 10 µM [2, 4] [%]	inhibition at 10 µM (SW480 colon cancer cells; [4]) [%]
1840	3150	134		c1cc2cc(-c3n[nH]c4ccc(-c5cncc(OCCN6CCCC6)c5)cc34)[nH]c2cn1 [Compound 658, 5-(5-(2-(Pyrrolidin-1-yl)ethoxy)pyridin-3-yl)-3-(1H-pyrrolo[2,3-c]pyridin-2-yl)-1H-indazole]	925	45			
45	94	45		CCC(=O)Nc1cncc(-c2ccc3[nH]nc(-c4cc5c(-c6cccc(F)c6)cncc5[nH]4)c3c2)c1 [Compound 1]	62	34			
260	584	247		CC(C)C(=O)Nc1cncc(-c2ccc3[nH]nc(-c4cc5c(-c6cccnc6)cncc5[nH]4)c3c2)c1 [Compound 93, N-(5-(3-(4-(Pyridin-3-yl)-1H-pyrrolo[2,3-c]pyridin-2-yl)-1H-indazol-5-yl)pyridin-3-yl)isobutyramide]	175	34			
86	117	14	10	O=C(Nc1cncc(-c2ccc3[nH]nc(-c4cc5c(-c6cccs6)cncc5[nH]4)c3c2)c1)C1CC1 [Compound 356, N-(5-(3-(4-(Thiophen-2-yl)-1H-pyrrolo[2,3-c]pyridin-2-yl)-1H-indazol-5-yl)pyridin-3-yl)cyclopropanecarboxamide]	83	156			
670	355	2420		Fc1cccc(-c2cncc3[nH]c(-c4n[nH]c5ccc(-c6ccccn6)cc45)cc23)c1 [Compound 28, 3-(4-(3-Fluorophenyl)-1H-pyrrolo[2,3-c]pyridin-2-yl)-5-(pyridin-2-yl)-1H-indazole]	460	26			
670	836	128		CC(C)Nc1cncc(-c2ccc3[nH]nc(-c4cc5c(-c6cccnc6)cncc5[nH]4)c3c2)c1 [Compound 96, N-Isopropyl-5-(3-(4-(pyridin-3-yl)-1H-pyrrolo[2,3-c]pyridin-2-yl)-1H-indazol-5-yl)pyridin-3-amine]	315	42			
960	294	74		CN(C)Cc1cncc(-c2cc3c(-c4cc5c(-c6cccc(F)c6)cncc5[nH]4)n[nH]c3cc2F)c1 [Compound 992, 1-(5-(6-Fluoro-3-(4-(3-fluorophenyl)-1H-pyrrolo[2,3-c]pyridin-2-yl)-1H-indazol-5-yl)pyridin-3-yl)-N,N-dimethylmethanamine]	920	21			
> 10000	> 10000	187	100	CCNCc1cncc(-c2ccc3[nH]nc(-c4cc5c(-c6cc(F)cc(CNS(C)(=O)=O)c6)cncc5[nH]4)c3c2)c1 [Compound 482, N-(3-(2-(5-(5-((Ethylamino)methyl)pyridin-3-yl)-1H-indazol-3-yl)-1H-pyrrolo[2,3-c]pyridin-4-yl)-5-fluorobenzyl)methanesulfonamide]	> 10000	58	17.1	29.8	24.3
3230	4150	5430	2700	Fc1cccc(-c2cncc3[nH]c(-c4n[nH]c5ccc(C6CCNCC6)cc45)cc23)c1 [Compound 505, 3-(4-(3-Fluorophenyl)-1H-pyrrolo[2,3-c]pyridin-2-yl)-5-(piperidin-4-yl)-1H-indazole]	2500	51			
3480	4450	500		CN1CCN(c2cncc3[nH]c(-c4n[nH]c5ccc(-c6cncc(NC(=O)CC(C)(C)C)c6)cc45)cc23)CC1 [Compound 240, 3,3-Dimethyl-N-(5-(3-(4-(4-methylpiperazin-1-yl)-1H-pyrrolo[2,3-c]pyridin-2-yl)-1H-indazol-5-yl)pyridin-3-yl)butanamide]	2650	31			
4060	4020	1370		CN1CCN(c2cncc3[nH]c(-c4n[nH]c5ccc(-c6cccnc6)cc45)cc23)CC1 [Compound 228, 3-(4-(4-Methylpiperazin-1-yl)-1H-pyrrolo[2,3-c]pyridin-2-yl)-5-(pyridin-3-yl)-1H-indazole]	774	20			
191	109	26	300	Cc1ccncc1-c1ccc2[nH]nc(-c3cc4ccncc4[nH]3)c2c1 [Compound 257, 5-(4-Methylpyridin-3-yl)-3-(1H-pyrrolo[2,3-c]pyridin-2-yl)-1H-indazole]	484	161			

Reference: patent publication US20180228780A1, “3-(1H-PYRROLO[2,3-C]PYRIDIN-2-YL)-1H-INDAZOLES AND THERAPEUTIC USES THEREOF” (Samumed, LLC, priority 2015, published 2018)
